# Experimental data published in PubChem BioAssay (NCI).
#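 Cells were grown in 96-well plates and exposed to each compound for 48 hours at five concentrations; endpoints were interpolated linearly between bracketing concentrations, or set to the highest concentration if not reached. Here, GI50 denotes the concentration required for 50% inhibition of growth. At the TGI there is no net growth.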
# What was measured:
# Assay in all cases: NCI tumour cell line growth inhibition, 48 h
# [1] = tested on: A549 NSCLC
# [2] = tested on: HOP-92 NSCLC
# [3] = tested on: 786-0 renal
# [4] = tested on: COLO 205 colon
# [5] = tested on: CAKI-1 renal
# [6] = tested on: SN12C renal
# [7] = tested on: UACC-257 melanoma
# [8] = tested on: OVCAR-5 ovarian
# [9] = tested on: LOX IMVI melanoma
# [10] = tested on: HT29 colon
# [11] = tested on: A498 renal
# [12] = tested on: U251 CNS
# [13] = tested on: K-562 leukemia
# [14] = tested on: DU-145 prostate
# [15] = tested on: ACHN renal
# [16] = tested on: BT-549 breast
# [17] = tested on: SK-MEL-28 melanoma
# [18] = tested on: NCI-H522 lung
# [19] = tested on: NCI-H23 lung
# [20] = tested on: OVCAR-8 ovarian
# [21] = tested on: NCI-H460 lung
# [22] = tested on: KM12 colon
# [23] = tested on: UACC-62 melanoma
# [24] = tested on: MALME-3M melanoma
# [25] = tested on: MCF7 breast
# [26] = tested on: SF-539 CNS
# [27] = tested on: EKVX NSCLC
# [28] = tested on: HL-60(TB) leukemia
# [29] = tested on: PC-3 prostate
# [30] = tested on: T-47D breast
# [31] = tested on: MDA-MB-231 breast
# [32] = tested on: SR leukemia
# [33] = tested on: SNB-75 CNS
# [34] = tested on: CCRF-CEM leukemia
# [35] = tested on: NCI-H226 lung
# [36] = tested on: NCI/ADR-RES ovarian
# [37] = tested on: SNB-19 CNS
# [38] = tested on: SF-295 CNS
# [39] = tested on: HOP-62 NSCLC
# [40] = tested on: SK-MEL-2 melanoma
# [41] = tested on: TK-10 renal
# [42] = tested on: M14 melanoma
# [43] = tested on: RXF 393 renal
# [44] = tested on: IGROV1 ovarian
# [45] = tested on: UO-31 renal
# [46] = tested on: MDA-MB-435
# [47] = tested on: HCT-116 colon
# [48] = tested on: RPMI-8226 leukemia
# [49] = tested on: HS 578T breast
# [50] = tested on: SK-OV-3 ovarian
# [51] = tested on: MOLT-4 leukemia
# [52] = tested on: SF-268 CNS
# [53] = tested on: SK-MEL-5 melanoma
# [54] = tested on: SW-620 colon
# [55] = tested on: HCT-15 colon
# [56] = tested on: HCC-2998 colon
# [57] = tested on: OVCAR-4 ovarian
smiles,measurement,setting,value
CCCCCCNC(=O)Oc1ccc(/C(=C(\C)c2ccc(Cl)cc2)c2ccc(OCCN(C)C)cc2)cc1,GI50,[1],1630 nM
same,TGI,[1],3.13 µM
same,GI50,[2],1020 nM
same,TGI,[2],2220 nM
same,GI50,[3],1740 nM
same,TGI,[3],3.27 µM
same,GI50,[4],1680 nM
same,TGI,[4],3.1 µM
same,GI50,[5],1330 nM
same,TGI,[5],2650 nM
same,GI50,[6],1680 nM
same,TGI,[6],3.22 µM
same,GI50,[7],1760 nM
same,TGI,[7],3.28 µM
same,GI50,[8],4.26 µM
same,TGI,[8],17.1 µM
same,GI50,[9],1630 nM
same,TGI,[9],2990 nM
same,GI50,[10],1710 nM
same,TGI,[10],3.37 µM
same,GI50,[11],2690 nM
same,TGI,[11],12.1 µM
same,GI50,[12],1590 nM
same,TGI,[12],3.04 µM
same,GI50,[13],1660 nM
same,TGI,[13],7.21 µM
same,GI50,[14],2020 nM
same,TGI,[14],3.92 µM
same,GI50,[15],1880 nM
same,TGI,[15],3.77 µM
same,GI50,[16],2880 nM
same,TGI,[16],9.2 µM
same,GI50,[17],1780 nM
same,TGI,[17],3.26 µM
same,GI50,[18],1780 nM
same,TGI,[18],3.42 µM
same,GI50,[19],2240 nM
same,TGI,[19],5.71 µM
same,GI50,[20],1600 nM
same,TGI,[20],3.1 µM
same,GI50,[21],1700 nM
same,TGI,[21],3.12 µM
same,GI50,[22],1870 nM
same,TGI,[22],3.61 µM
same,GI50,[23],1720 nM
same,TGI,[23],3.32 µM
same,GI50,[24],1720 nM
same,TGI,[24],3.26 µM
same,GI50,[25],216 nM
same,TGI,[25],2190 nM
same,GI50,[26],1740 nM
same,TGI,[26],3.12 µM
same,GI50,[27],3.83 µM
same,TGI,[27],16.5 µM
same,GI50,[28],1620 nM
same,TGI,[28],4.3 µM
same,GI50,[29],1440 nM
same,TGI,[29],2840 nM
same,GI50,[30],1450 nM
same,TGI,[30],4.12 µM
same,GI50,[31],1770 nM
same,TGI,[31],3.38 µM
same,GI50,[32],1680 nM
same,TGI,[32],4.1 µM
same,GI50,[33],1690 nM
same,TGI,[33],7.12 µM
same,GI50,[34],1890 nM
same,TGI,[34],5.64 µM
same,GI50,[35],4.26 µM
same,TGI,[35],18.1 µM
same,GI50,[36],3.12 µM
same,TGI,[36],11.8 µM
same,GI50,[37],3.31 µM
same,TGI,[37],12.4 µM
same,GI50,[38],1750 nM
same,TGI,[38],3.2 µM
same,GI50,[39],1630 nM
same,TGI,[39],3.18 µM
same,GI50,[40],1870 nM
same,TGI,[40],3.8 µM
same,GI50,[41],1840 nM
same,TGI,[41],4.08 µM
same,GI50,[42],1690 nM
same,TGI,[42],3.19 µM
same,GI50,[43],1330 nM
same,TGI,[43],2720 nM
same,GI50,[44],1810 nM
same,TGI,[44],3.57 µM
same,GI50,[45],1310 nM
same,TGI,[45],2770 nM
same,GI50,[46],1720 nM
same,TGI,[46],3.24 µM
same,GI50,[47],1530 nM
same,TGI,[47],3000 nM
same,GI50,[48],1900 nM
same,TGI,[48],4.3 µM
same,GI50,[49],1550 nM
same,TGI,[49],3.53 µM
same,GI50,[50],2220 nM
same,TGI,[50],6.92 µM
same,GI50,[51],1930 nM
same,TGI,[51],5.27 µM
same,GI50,[52],2390 nM
same,TGI,[52],7.63 µM
same,GI50,[53],1770 nM
same,TGI,[53],3.25 µM
same,GI50,[54],1600 nM
same,TGI,[54],3.03 µM
same,GI50,[55],1720 nM
same,TGI,[55],3.3 µM
same,GI50,[56],2060 nM
same,TGI,[56],4.29 µM
same,GI50,[57],1940 nM
same,TGI,[57],4.65 µM
